# Measured values as given in patent US12102616B2, “Psilocin mucate” (LOBE SCIENCES LTD., priority 2022, dated 2024).
# Where “and” joins values, the source holds several entries; their conditions need not be identical. Equal values may be shown once. Entries after “also recorded” stand apart in the source; their conditions may differ. Read-outs that look alike come from different tables or passages of the source.
# Legend:
# healthy subjects = test: Mood assessment, MMSE test and adverse events in the phase one study
# [1] = Stability studies on psilocin mucate capsule over a 12 month period; type: physicochemical; details: for Appearance POL-0018, Product / Assay TM-22-0392 (% Label Claim) / Total Impurities / Water Content by cKF TM-22-0012, Mean (2) / Water Content by cKF TM-22-0012, Prep 1 and 2 / Impurities TM-22-0392 (individual impurities): capsules
# Description: Additional stability studies were performed on psilocin mutate (also known as psilocin mucic acid salt or conjugate or psilocin galactaric acid salt or conjugate) capsule over a 12 month period.
# Appearance was evaluated by viewing of the sample on a watchglass over a black and white background.
# Assay conditions for Test/Method TM-022-0392 assessing stability and impurities were as follows: • Mobile phase: MPA: 945 mL water, 5 mL H3PO4, pH to 5.7 with NaOH; MPB: Acetonitrile • Diluent: 80:20 Water:MeOH • Standard: 0.4 mg/mL Psilocin Mucic RS in Diluent • Sample: 0.4 mg/mL Psilocin Mucic API in Diluent • HPLC Conditions are depicted in Table 3.
# • System suit: RSD NMT 2.0% (5 injections), Tailing NMT 2.0, Plate count NLT 10000
# Calculations were against a bracketing external standard.
# Identity of psilocin mucate was verified by ultraviolet (UV) assessment, wherein the UV spectrum of the main peak in the standard matched the UV spectrum of the main peak in the sample and by retention time wherein the retention time ratio was 0.98-1.02.
# Swiss Albino Mice = test: 28-day oral (gavage) toxicity study with 14-day recovery
# [2] = Phase one single-dose pharmacokinetic study of capsules containing psilocin mucic acid conjugate (plasma psilocin)
# [3] = cited from earlier work; for AUC / Tmax / Cmax: psilocin
# [4] = Usona's investigator's brochure; cited from earlier work
# [5] = single oral dose equivalent to 2 mg psilocin
# [6] = 2, 10 and 20 mg/kg bw/day oral, 28 days
# [7] = females G4R vs G1R, considered not related
# [8] = males G4R vs G1R, considered not related
# [9] = plasma psilocin, 2 mg p.o. PM fasted
# [10] = 0.224 mg/kg p.o. PY fasted by Hasler
structure (smiles),measurement,setting,value
CN(C)CCc1c[nH]c2cccc(O)c12.O=C(O)[C@@H](O)[C@H](O)[C@H](O)[C@@H](O)C(=O)O [psilocin mucate],FEELING STATUS,"healthy subjects; individual subjects 01-10, single oral capsule, 2 mg psilocin equivalent, assessed by psychiatrist","Feel little beet happier, better; also recorded: Feel calm, less thoughts, happier; also recorded: Euphoric, better mood, it helps with; also recorded: Euphories, better mood, sleepy, feel; also recorded: Sleepy, better thoughts, less worried; also recorded: Did not feel change in mood but feeling; also recorded: More relaxed, want to drink sweet; also recorded: Better mood, feels hyper sexual; also recorded: Felt high mood, now they feel in good; also recorded: Less anxious, better mood, increase"
same,MMSE,"healthy subjects; individual subjects 01-10, single oral capsule, 2 mg psilocin equivalent, hallucinogenic substance expected to lower score below 25",30 (3×) and 28 (3×) and 27 (2×) and 29 (2×)
same,adverse events: dizziness,healthy subjects; [5],one subject reported slight and transient dizziness
same,serious adverse effects,healthy subjects; [5],no serious adverse effects were reported
same,subjects with no hallucinogenic effect,healthy subjects; [5],9 of the 10
same,stable for (duration of stability),[1],at least 12 months
same,"Appearance POL-0018, Product",[1]; 1 Month,Conforms
same,Assay TM-22-0392 (% Label Claim),[1]; 1 Month,98.8%
same,Total Impurities,[1]; 1 Month,0.05%
same,"Water Content by cKF TM-22-0012, Mean (2)",[1]; 1 Month,0.9 % w/w
same,"Water Content by cKF TM-22-0012, Prep 1 and 2",[1]; 1 Month,0.9 % w/w and 0.8 % w/w
same,Impurities TM-22-0392 (individual impurities),"[1]; 1 Month, impurity at RRT 1.11",RRT 1.11/0.05%
same,"Appearance POL-0018, Product",[1]; 3 Months,Conforms
same,Assay TM-22-0392 (% Label Claim),[1]; 3 Months,101.1%
same,Total Impurities,[1]; 3 Months,<0.05%
same,"Water Content by cKF TM-22-0012, Mean (2)",[1]; 3 Months,1.6 % w/w
same,"Water Content by cKF TM-22-0012, Prep 1 and 2",[1]; 3 Months,2.0 % w/w and 1.1 % w/w
same,Impurities TM-22-0392 (individual impurities),"[1]; 3 Months, all impurities",All < 0.05%
same,"Appearance POL-0018, Product",[1]; 5 Months,Conforms
same,Assay TM-22-0392 (% Label Claim),[1]; 5 Months,103.2%
same,Total Impurities,[1]; 5 Months,<0.05%
same,"Water Content by cKF TM-22-0012, Mean (2)",[1]; 5 Months,1.3 % w/w
same,"Water Content by cKF TM-22-0012, Prep 1 and 2",[1]; 5 Months,1.2 % w/w and 1.3 % w/w
same,Impurities TM-22-0392 (individual impurities),"[1]; 5 Months, all impurities",All < 0.05%
same,"Appearance POL-0018, Product",[1]; 6 Months,Conforms
same,Assay TM-22-0392 (% Label Claim),[1]; 6 Months,98.8%
same,Total Impurities,[1]; 6 Months,<0.05%
same,"Water Content by cKF TM-22-0012, Mean (2)",[1]; 6 Months,1.4 % w/w
same,"Water Content by cKF TM-22-0012, Prep 1 and 2",[1]; 6 Months,1.4 % w/w
same,Impurities TM-22-0392 (individual impurities),"[1]; 6 Months, all impurities",All < 0.05%
same,"Appearance POL-0018, Product",[1]; 12 Months,Conforms
same,Assay TM-22-0392 (% Label Claim),[1]; 12 Months,98.4%
same,Total Impurities,[1]; 12 Months,<0.05%
same,"Water Content by cKF TM-22-0012, Mean (2)",[1]; 12 Months,1.3 % w/w
same,"Water Content by cKF TM-22-0012, Prep 1 and 2",[1]; 12 Months,1.2 % w/w and 1.3 % w/w
same,Impurities TM-22-0392 (individual impurities),"[1]; 12 Months, all impurities",All < 0.05%
same,Total Impurities,[1]; Initial,0.08%
same,"Water Content by cKF TM-22-0012, Mean (2)",[1]; Initial,1.2 % w/w
same,Impurities TM-22-0392 (individual impurities),"[1]; Initial, impurity at RRT 1.12",RRT 1.12/0.08%
same,Assay TM-22-0392 (% Label Claim),"[1]; Initial, specification 90.0-110.0%",98.8%
same,"Water Content by cKF TM-22-0012, Prep 1 and 2","[1]; Initial, specification NMT 10.0%",1.1 % w/w and 1.2 % w/w
same,"Appearance POL-0018, Product","[1]; Initial, specification white to light brown powder partially filling white opaque capsules",Conforms
same,Functional observation battery,Swiss Albino Mice; [6],No treatment related effects were observed
same,Mortality and morbidity check,Swiss Albino Mice; [6],No mortality or morbidity was observed at any dose level
same,"effects on general health, body weight, feed consumption, clinical pathology, gross pathology and histopathology","Swiss Albino Mice; 28 consecutive days, both sexes",no psilocin mucate related effects
same,"Histopathology, overall",Swiss Albino Mice; G1 and G4 main group organs/tissues,no psilocin mucate related histopathological changes
same,histopathological lesions (background findings),"Swiss Albino Mice; G4 female, considered toxicologically irrelevant",single incidence of cortical cyst (unilateral) in kidneys; also recorded: presence of luteal cyst (unilateral) in ovaries
same,AChE,"Swiss Albino Mice; G4 male and G3 female animals vs vehicle control, considered non-psilocin mucate related",statistically significant increase
same,body weight gain,"Swiss Albino Mice; G4 males (20 mg/kg bw/day), day 1-8, vs control, not considered adverse",statistically significant decrease
same,net body weight gain (day 1 to day 43),"Swiss Albino Mice; G4 recovery females vs control, not due to treatment",statistically significant increase
same,foot splay measurement,"Swiss Albino Mice; G4 recovery group females (20 mg/kg bw/day), last day of recovery, vs control, considered random biological variation",statistically significant increase
same,Gross pathology,"Swiss Albino Mice; all groups, both sexes",No gross changes were observed
same,"Clinical chemistry parameters, overall",Swiss Albino Mice; both sexes,No psilocin mucate related changes were observed
same,"Hematology parameters, overall",Swiss Albino Mice; both sexes,No psilocin mucate related changes were observed
same,Coagulation parameters,"Swiss Albino Mice; both sexes, main and recovery group",No statistically significant changes were observed
same,total bile acids,"Swiss Albino Mice; females G3 and G4 vs G1, considered not related",statistically significant increase
same,aspartate aminotransferase and inorganic phosphorous,Swiss Albino Mice; [7],decrease
same,"creatinine, total protein, albumin and calcium",Swiss Albino Mice; [7],increase
same,mean corpuscular hemoglobin,Swiss Albino Mice; [7],increase
same,relative adrenals and brain weight,Swiss Albino Mice; [7],decrease
same,absolute and relative thymus weight,"Swiss Albino Mice; females G4 vs G1, considered not related",statistically significant increase
same,white blood cells and platelets,"Swiss Albino Mice; females G4 vs vehicle control, considered not related",statistically significant increase
same,Ophthalmological examination,Swiss Albino Mice; main and recovery group animals,No ocular abnormalities were observed
same,relative eosinophil count,"Swiss Albino Mice; males G2 and G4 vs vehicle control G1, considered not related",statistically significant decrease
same,chloride,"Swiss Albino Mice; males G3 vs G1, considered not related",decrease
same,absolute and relative lungs weight and absolute prostate with seminal vesicles and coagulating gland weight,Swiss Albino Mice; [8],statistically significant decrease
same,red blood cells and hemoglobin,Swiss Albino Mice; [8],statistically significant increase
same,reticulocytes,Swiss Albino Mice; [8],decrease
same,inorganic phosphorous,"Swiss Albino Mice; males G4 vs vehicle control, considered not related",statistically significant increase
same,feed consumption,"Swiss Albino Mice; males, G4 recovery group, day 29-36, vs control, considered incidental",statistically significant increase
same,"Acetyl cholinesterase (AChE) level, overall","Swiss Albino Mice; mouse, in vivo",No psilocin mucate related changes were observed
same,NOAEL translated to a dose for an average person of 70 kg,"Swiss Albino Mice; mouse, in vivo","1,400 mg"
same,"Urinalysis parameters, overall","Swiss Albino Mice; mouse, in vivo",No psilocin mucate related changes were observed
same,NOAEL,"Swiss Albino Mice; oral gavage, 28 consecutive days",20 mg/kg bw/day
same,urine pH,"Swiss Albino Mice; recovery female group (G4R) vs vehicle control recovery group, considered not related",statistically significant decrease
same,Clinical signs and detailed clinical signs observation,Swiss Albino Mice; treatment and recovery period,No clinical signs of toxicity were observed
same,food effect upon oral administration,[2]; from comparison with published psilocybin studies,no food effect
same,Cmax as compared to an equal amount of psilocin generated by the metabolism of psilocybin,[2]; oral,higher Cmax
same,decrease in Tmax as compared to an equivalent formulation of psilocybin,[2]; oral,≥ 2 fold
same,delivered concentrations of psilocin compared with intravenous psilocybin,[2]; oral formulation,equivalent to intravenous doses of psilocybin
same,patient-to-patient variability as compared to psilocybin treatment,[2]; oral formulation,decreased patient-to-patient variability
same,AUC,[2]; [9],11.189 μG H/L
same,Tmax,[2]; [9],0.75 h
same,Cmax,"[2]; plasma psilocin, 2 mg p.o. PM fasted, psilocin dose 2 mg, 0.026 mg/kg p.o.",3.66 ng/mL
same,time until psilocin is essentially eliminated from circulation,"[2]; single oral capsule, 2 mg psilocin equivalent",less than 12 hours
CN(C)CCc1c[nH]c2cccc(OP(=O)(O)O)c12 [psilocybin],AUC,[3]; [10],32.71 μG H/L
same,Tmax,[3]; [10],1.75 h
same,Cmax,"[3]; 0.224 mg/kg p.o. PY fasted by Hasler, psilocin dose 0.161 mg/kg p.o.",8.2 ng/mL
same,AUC,[3]; 1 mg i.v. PY by Hasler,4 μG H/L
same,Tmax,[3]; 1 mg i.v. PY by Hasler,0.0317 h
same,Cmax,"[3]; 1 mg i.v. PY by Hasler, psilocin dose 0.718 mg, 0.01 mg/kg i.v.",12.9 ng/mL
same,AUC,[3]; 25 mg p.o. PY fasted by Holze,83 μG H/L
same,Tmax,[3]; 25 mg p.o. PY fasted by Holze,1.9 h
same,Cmax,"[3]; 25 mg p.o. PY fasted by Holze, psilocin dose 17.95 mg, 0.256 mg/kg",17 ng/mL
same,"bioavailability, generally reported",[3]; varies from paper to paper,50-80%
same,lethal dose 50% (LD50),[4],285 mg/kg
